Consider two compounds from ChEMBL document CHEMBL1144762, “Diterpenoids from the roots of Suregada glomerulata” (J Nat Prod, 2008).

The structures appear in SMILES notation. Values after ≈ are worked out from the molar mass of the structure shown. Some results are limits rather than exact numbers.

Type in all cases: functional, cell-based
Assay [1] is described as follows: Cytotoxicity against human BGC 823 cells by MTT assay.
Assay [2] in a line: Cytotoxicity against human Bel 7402 cells by MTT assay.
A further assay has as its system HCT-8. Description: Cytotoxicity against human HCT8 cells by MTT assay.
Another assay relates to A2780. Briefly: Cytotoxicity against human A2780 cells by MTT assay.
The next assay has as its system A549. Briefly: Cytotoxicity against human A549 cells by MTT assay.

For the compound `CC1=C2C(=C[C@H]3[C@]4(C)CCC(=O)C(C)(C)[C@H]4CC[C@]34O[C@H]24)OC1=O`, the half-inhibitory concentration (IC50) in assay [1] was more than 10 mg/L; in assay [2], 7.53 mg/L (≈ 22.9 µM); in the assay with HCT-8 it was more than 10 mg/L; in the assay on A2780 it was 8.22 mg/L (≈ 25 µM); in the assay on A549, more than 10 mg/L.

`O=c1[nH]cc(F)c(=O)[nH]1` [FLUOROURACIL]: the IC50 in assay [1] was 0.7 mg/L (≈ 5.38 µM); in assay [2], 0.54 mg/L (≈ 4.15 µM); in the assay on HCT-8, 0.54 mg/L (≈ 4.15 µM); with A2780, 0.65 mg/L (≈ 5 µM); in the assay on A549, 0.18 mg/L (≈ 1.38 µM).
